According to patent US10105357B2, “Indication of antibiotic drugs for preparation of cancer inhibition pharmaceutical composition” (LAUNX BIOMEDICAL CO., LTD., priority 2014, dated 2018):
Structures can show the parent of a compound that is named as a salt. Where two headings read alike, the source gives them in different places.

Assays:
Assay type in all cases: cell-based, human
cancer cell lines = assay: Cell viability analysis (WST-1) on cancer cell lines; conditions: drug 10 μM, 72 hours, WST-1; Table 3
[1] = tested on: HI650 (Lung Adenocarcinoma); assay: Cell viability analysis, lung cancer HI650; conditions: for viability at 10 µM: Homo sapiens
[2] = tested on: A549 (Lung Adenocarcinoma); assay: Cell viability analysis, lung cancer A549; conditions: for viability at 10 µM: Homo sapiens
[3] = tested on: AGS (Gastric Adenocarcinoma); assay: Cell viability analysis, gastric cancer AGS; conditions: for viability at 10 µM: Homo sapiens
[4] = tested on: HepG2 (Hepatocellular Carcinoma); assay: Cell viability analysis, hepatic cancer HepG2; conditions: for viability at 10 µM: Homo sapiens
[5] = tested on: LoVo (Colorectal Adenocarcinoma); assay: Cell viability analysis, colon cancer LoVo; conditions: Homo sapiens, LoVo, 72 h, read-out: cell viability (survival rate), LoVo, drug 10 μM, 72 hours, WST-1, OD450 nm
[6] = tested on: A375 (Amelanotic Melanoma); assay: Cell viability analysis, skin cancer A375; conditions: for viability at 10 µM: Homo sapiens
[7] = tested on: HeLa (Cervix Adenocarcinoma); assay: Cell viability analysis, cervical cancer HeLa; conditions: Homo sapiens, HeLa
[8] = tested on: PC3 (p53−) (Prostate Adenocarcinoma); assay: Cell viability analysis, prostate cancer PC3; conditions: for viability at 10 µM: Homo sapiens
[9] = tested on: TSGH-8301 (Urinary Bladder Carcinoma); assay: Cell viability analysis, bladder cancer TSGH-8301; conditions: for viability at 10 µM: Homo sapiens
[10] = tested on: MCF7 (Mammary Gland, Adenocarcinoma); assay: Cell viability analysis, breast cancer MCF7; conditions: Homo sapiens, MCF7, 72 h
[11] = tested on: HL-60 (Acute Promyelocytic Leukemia); assay: Cell viability analysis, leukemia HL-60; conditions: for viability at 10 µM: Homo sapiens
[12] = tested on: MKN-45 (Gastric Adenocarcinoma); assay: Cell viability analysis, gastric cancer MKN-45; conditions: for viability at 10 µM: Homo sapiens
[13] = NCI-H1650, 72 h, read-out: cell viability (survival rate), H1650, drug 10 μM, 72 hours, WST-1, OD450 nm
[14] = A549, 72 h, read-out: cell viability (survival rate), A549, drug 10 μM, 72 hours, WST-1, OD450 nm
[15] = 72 h, read-out: cell viability (survival rate), AGS, drug 10 μM, 72 hours, WST-1, OD450 nm
[16] = MKN-45, 72 h, read-out: cell viability (survival rate), MKN-45, drug 10 μM, 72 hours, WST-1, OD450 nm
[17] = HepG2, 72 h, read-out: cell viability (survival rate), HepG2, drug 10 μM, 72 hours, WST-1, OD450 nm
[18] = A-375, 72 h, read-out: cell viability (survival rate), A375, drug 10 μM, 72 hours, WST-1, OD450 nm
[19] = 72 h, read-out: cell viability (survival rate), HeLa, drug 10 μM, 72 hours, WST-1, OD450 nm
[20] = 72 h, read-out: cell viability (survival rate), PC3, drug 10 μM, 72 hours, WST-1, OD450 nm
[21] = 72 h, read-out: cell viability (survival rate), TSGH, drug 10 μM, 72 hours, WST-1, OD450 nm
[22] = read-out: cell viability (survival rate), MCF7, drug 10 μM, 72 hours, WST-1, OD450 nm
[23] = HL-60, 72 h, read-out: cell viability (survival rate), HL-60, drug 10 μM, 72 hours, WST-1, OD450 nm
[24] = drug 10 μM, 72 hours, WST-1, OD450 nm

Row | Molecule | inhibition effect on different cancer cell lines (cancer cell lines) | viability at 10 µM [5] | viability at 10 µM [1, 13] | viability at 10 µM [2, 14] | viability at 10 µM [3, 15] | viability at 10 µM [12, 16] | viability at 10 µM [4, 17] | viability at 10 µM [6, 18] | viability at 10 µM [7, 19] | viability at 10 µM [8, 20] | viability at 10 µM [9, 21] | viability at 10 µM [10, 22] | viability at 10 µM [11, 23] | further results
1 | Cc1cc(-n2c(=O)[nH]c(=O)n(C)c2=O)ccc1Oc1ccc(SC(F)(F)F)cc1 [toltrazuril] | significant inhibition effect | 61.9% | – | – | – | – | – | – | – | – | – | – | – | viability at 10 µM ([1]; NCI-H1650, 72 h, drug 10 μM, 72 hours, WST-1, OD450 nm, read-out: cell viability (survival rate), H1650): 70.9%; viability at 10 µM ([2]; A549, 72 h, drug 10 μM, 72 hours, WST-1, OD450 nm, read-out: cell viability (survival rate), A549): 61.2%; viability at 10 µM ([3]; 72 h, drug 10 μM, 72 hours, WST-1, OD450 nm, read-out: cell viability (survival rate), AGS): 26.3%; viability at 10 µM ([4]; HepG2, 72 h, drug 10 μM, 72 hours, WST-1, OD450 nm, read-out: cell viability (survival rate), HepG2): 62.2%; viability at 10 µM ([6]; A-375, 72 h, drug 10 μM, 72 hours, WST-1, OD450 nm, read-out: cell viability (survival rate), A375): 27.7%; viability at 10 µM ([7]; 72 h, drug 10 μM, 72 hours, WST-1, OD450 nm, read-out: cell viability (survival rate), HeLa): 70.1%; viability at 10 µM ([8]; 72 h, drug 10 μM, 72 hours, WST-1, OD450 nm, read-out: cell viability (survival rate), PC3): 30.3%; viability at 10 µM ([9]; 72 h, drug 10 μM, 72 hours, WST-1, OD450 nm, read-out: cell viability (survival rate), TSGH): 34.8%; viability at 10 µM ([10]; drug 10 μM, 72 hours, WST-1, OD450 nm, read-out: cell viability (survival rate), MCF7): 67.4%; viability at 10 µM ([11]; HL-60, 72 h, drug 10 μM, 72 hours, WST-1, OD450 nm, read-out: cell viability (survival rate), HL-60): 73.1%
2 | O=C(N[C@H](CO)[C@H](O)c1ccc([N+](=O)[O-])cc1)C(Cl)Cl [Chloramphenicol (Chloromycetin), Chloramphenicol] | significant inhibition effect | – | 75.6% | 96.3% | 90.6% | 66.8% | 93.6% | 114% | 85% | 120% | 83.5% | 89.1% | 105% | –
3 | OC(Cn1cncn1)(Cn1cncn1)c1ccc(F)cc1F [Fluconazole] | significant inhibition effect | 102% | 45.3% | 125% | 50.2% | 76.2% | 97.4% | 76.9% | 79.2% | 97.7% | 66.1% | – | 106% | –
4 | CCCN1CCCC[C@H]1C(=O)Nc1c(C)cccc1C [Ropivacaine HCl] | significant inhibition effect | 89.7% | 92.4% | 118% | 64.3% | 132% | 98% | 71.2% | 126% | 110% | – | 99.2% | 81.3% | –
5 | CC[C@H]1OC(=O)[C@H](C)[C@@H](O[C@H]2C[C@@](C)(OC)[C@@H](O)[C@H](C)O2)[C@H](C)[C@@H](O[C@@H]2O[C@H](C)C[C@H](N(C)C)[C@H]2O)[C@](C)(O)C[C@@H](C)C(=O)[C@H](C)[C@@H](O)[C@]1(C)O [Erythromycin (E-Mycin), Erythromycin] | significant inhibition effect | 85.5% | 90.4% | 63.8% | 27.7% | 53.2% | 93.5% | – | 93% | 86% | 42.6% | 45.2% | 111% | –
6 | Caspofungin acetate | significant inhibition effect | – | – | – | – | – | – | – | – | – | – | – | – | cell viability (survival rate), H1650 [1, 24]: 37.1; cell viability (survival rate), A549 [2, 24]: 78.4; cell viability (survival rate), AGS [3, 24]: 94.2; cell viability (survival rate), MKN-45 [12, 24]: 36.4; cell viability (survival rate), HepG2 [4, 24]: 95.3; cell viability (survival rate), A375 [6, 24]: 70.5; cell viability (survival rate), PC3 [8, 24]: 59.4; cell viability (survival rate), TSGH [9, 24]: 123.7; cell viability (survival rate), HL-60 [11, 24]: 124.4
7 | O=c1[nH]c(=O)n([C@H]2C[C@H](O)[C@@H](CO)O2)cc1I [Idoxuridine] | significant inhibition effect | 72.7% | 82.8% | 58.5% | 68.7% | 80.8% | 122% | 81.5% | – | 57.8% | 88% | 47.3% | 96.1% | –
8 | CN1[C@@H]2CC[C@H]1C[C@@H](OC(c1ccccc1)c1ccccc1)C2 [Benztropine mesylate] | significant inhibition effect | 81.4% | 91.7% | 68.2% | 83% | 89.4% | 86% | 67.5% | 95.3% | 75.3% | – | 63.3% | 81.1% | –
9 | Nc1ccc(S(N)(=O)=O)cc1 [Sulfanilamide] | significant inhibition effect | 85% | 66.7% | 82.7% | 65.3% | 59.1% | – | 84.6% | 82.1% | 111% | 76.5% | 105% | 112% | –
10 | Cc1ccnc(NS(=O)(=O)c2ccc(N)cc2)n1 [Sulfamerazine] | significant inhibition effect | 99.6% | 108% | 103% | 87.9% | 87.4% | – | 80.4% | 92.3% | 78.4% | 90% | 79.8% | 105% | –
11 | CC(C)(C)C(=O)C(Oc1ccc(Cl)cc1)n1ccnc1 (stereo not drawn) [Climbazole] | significant inhibition effect | – | – | – | – | – | – | – | – | – | – | – | – | viability at 10 µM ([1]; NCI-H1650, drug 10 μM, 72 hours, WST-1, OD450 nm, read-out: cell viability (survival rate), H1650): 84.2%; viability at 10 µM ([2]; A549, drug 10 μM, 72 hours, WST-1, OD450 nm, read-out: cell viability (survival rate), A549): 72.7%; viability at 10 µM ([3]; drug 10 μM, 72 hours, WST-1, OD450 nm, read-out: cell viability (survival rate), AGS): 93.3%; viability at 10 µM ([12]; MKN-45, drug 10 μM, 72 hours, WST-1, OD450 nm, read-out: cell viability (survival rate), MKN-45): 97.7%; viability at 10 µM ([4]; HepG2, drug 10 μM, 72 hours, WST-1, OD450 nm, read-out: cell viability (survival rate), HepG2): 94.4%; viability at 10 µM ([6]; A-375, drug 10 μM, 72 hours, WST-1, OD450 nm, read-out: cell viability (survival rate), A375): 70.6%; viability at 10 µM ([7]; drug 10 μM, 72 hours, WST-1, OD450 nm, read-out: cell viability (survival rate), HeLa): 94%; viability at 10 µM ([8]; drug 10 μM, 72 hours, WST-1, OD450 nm, read-out: cell viability (survival rate), PC3): 99.6%; viability at 10 µM ([9]; drug 10 μM, 72 hours, WST-1, OD450 nm, read-out: cell viability (survival rate), TSGH): 102%; viability at 10 µM ([11]; HL-60, drug 10 μM, 72 hours, WST-1, OD450 nm, read-out: cell viability (survival rate), HL-60): 111%
